Source: the supplement of paper PMC10307832

Assays:
Assay in all cases: relative viability (nuclei count vs DMSO), 5 days (fraction); higher = more cells survive
[1] = compound: C1CN(CCN1)C2=CC=C(C=C2)C3=CN4C(=C(C=N4)C5=CC=NC6=CC=CC=C56)N=C3 [DM3189]
Outline: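 Viability was defined as treated-well nuclei divided by vehicle-well nuclei, with the median taken over replicate plates. Cells from lung cancer lines sat overnight at 37 °C in 1536-well plates, received five √10-spaced library-drug doses by pinning on vehicle-anchored plates, and grew 5 days without medium change before one-step fixation, permeabilisation and Hoechst staining, 4× imaging and MetaXpress nuclear counts. Only plates with control CV under 25% and at least one doubling were kept.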

[2] = compound: C1CN(CCN1)C2=CC=C(C=C2)C3=CN4C(=C(C=N4)C5=CC=NC6=CC=CC=C56)N=C3 [DM3189] + Nc1nc2[nH]cc(CCc3ccc(C(=O)N[C@@H](CCC(=O)O)C(=O)O)cc3)c2c(=O)[nH]1 [Pemetrexed] (partner 0.2 µM)
Outline: (§1)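 Relative viability is defined as nuclei in treated wells over nuclei in vehicle wells. Duplicate plates were run and medians reported. Lung cancer cell lines in 1536-well plates were dosed by pin tool one day after seeding, with one drug or with a fixed anchor-drug dose plus five library-drug doses (not always all listed) in √10 steps, and nuclei were counted after 5 days.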

[3] = compound: C1CN(CCN1)C2=CC=C(C=C2)C3=CN4C(=C(C=N4)C5=CC=NC6=CC=CC=C56)N=C3 [DM3189] + COc1cccc2cc(-c3nc([C@H]4CC[C@H](C(=O)O)CC4)n4ncnc(N)c34)[nH]c12 [OSI-027] (partner 0.5 µM)
Outline: as §1

[4] = compound: C1CN(CCN1)C2=CC=C(C=C2)C3=CN4C(=C(C=N4)C5=CC=NC6=CC=CC=C56)N=C3 [DM3189] + O=C(CCCCCCC(=O)Nc1ccccc1)NO [Vorinostat] (partner 1 µM)
Outline: as §1

[5] = compound: C1CN(CCN1)C2=CC=C(C=C2)C3=CN4C(=C(C=N4)C5=CC=NC6=CC=CC=C56)N=C3 [DM3189] + NC(=O)Nc1cc(-c2cccc(F)c2)sc1C(=O)N[C@H]1CCCNC1 [AZD7762] (partner 0.2 µM)
Outline: as §1

[6] = compound: C1CN(CCN1)C2=CC=C(C=C2)C3=CN4C(=C(C=N4)C5=CC=NC6=CC=CC=C56)N=C3 [DM3189] + CC(=O)Nc1cccc(-n2c(=O)n(C3CC3)c(=O)c3c(Nc4ccc(I)cc4F)n(C)c(=O)c(C)c32)c1 [Trametinib] (partner 0.02 µM)
Outline: as §1

[7] = compound: C1CN(CCN1)C2=CC=C(C=C2)C3=CN4C(=C(C=N4)C5=CC=NC6=CC=CC=C56)N=C3 [DM3189] + Nc1ncn([C@H]2C[C@H](O)[C@@H](CO)O2)c(=O)n1 [Decitabine] (partner 2 µM)
Outline: as §1

[8] = compound: C1CN(CCN1)C2=CC=C(C=C2)C3=CN4C(=C(C=N4)C5=CC=NC6=CC=CC=C56)N=C3 [DM3189] + CC(=O)c1c(C)c2cnc(Nc3ccc(N4CCNCC4)cn3)nc2n(C2CCCC2)c1=O [Palbociclib] (partner 0.5 µM)
Outline: as §1

[9] = compound: C1CN(CCN1)C2=CC=C(C=C2)C3=CN4C(=C(C=N4)C5=CC=NC6=CC=CC=C56)N=C3 [DM3189] + Cc1cc(Nc2cc(N3CCN(C)CC3)nc(Sc3ccc(NC(=O)C4CC4)cc3)n2)n[nH]1 [Tozasertib] (partner 0.1 µM)
Outline: as §1

[10] = compound: C1CN(CCN1)C2=CC=C(C=C2)C3=CN4C(=C(C=N4)C5=CC=NC6=CC=CC=C56)N=C3 [DM3189] + O=C(c1cc(Cc2n[nH]c(=O)c3ccccc23)ccc1F)N1CCN(C(=O)C2CC2)CC1 [Olaparib] (partner 8 µM)
Outline: as §1

[11] = compound: C1CN(CCN1)C2=CC=C(C=C2)C3=CN4C(=C(C=N4)C5=CC=NC6=CC=CC=C56)N=C3 [DM3189] + Cc1nc(Nc2ncc(C(=O)Nc3c(C)cccc3Cl)s2)cc(N2CCN(CCO)CC2)n1 [Dasatinib] (partner 0.075 µM)
Outline: as §1

[12] = compound: C1CN(CCN1)C2=CC=C(C=C2)C3=CN4C(=C(C=N4)C5=CC=NC6=CC=CC=C56)N=C3 [DM3189] + N=C(N)NC(=N)NCCc1ccccc1 [Phenformin] (partner 250 µM)
Outline: as §1

[13] = compound: C1CN(CCN1)C2=CC=C(C=C2)C3=CN4C(=C(C=N4)C5=CC=NC6=CC=CC=C56)N=C3 [DM3189] + CCNC(=O)c1noc(-c2cc(C(C)C)c(O)cc2O)c1-c1ccc(CN2CCOCC2)cc1 [Luminespib] (partner 0.01 µM)
Outline: as §1

Cell Line: NCI-H1648
- relative viability ([1]; 0.08 µM): 0.798
- relative viability ([1]; 0.253 µM): 0.947
- relative viability ([1]; 0.8 µM): 0.962
- relative viability ([1]; 2.53 µM): 0.661
- relative viability ([2]; first compound 0.08 µM): 0.893
- relative viability ([2]; first compound 0.253 µM): 0.615
- relative viability ([2]; first compound 0.8 µM): 0.596
- relative viability ([2]; first compound 2.53 µM): 0.577
- relative viability ([3]; first compound 0.253 µM): 0.272
- relative viability ([3]; first compound 0.8 µM): 0.227
- relative viability ([3]; first compound 2.53 µM): 0.28
- relative viability ([4]; first compound 0.08 µM): 0.453
- relative viability ([4]; first compound 0.253 µM): 0.637
- relative viability ([4]; first compound 0.8 µM): 0.421
- relative viability ([4]; first compound 2.53 µM): 0.391
- relative viability ([5]; first compound 0.08 µM): 0.681
- relative viability ([5]; first compound 0.253 µM): 0.592
- relative viability ([5]; first compound 0.8 µM): 0.562
- relative viability ([5]; first compound 2.53 µM): 0.576
- relative viability ([6]; first compound 0.08 µM): 0.434
- relative viability ([6]; first compound 0.253 µM): 0.51
- relative viability ([6]; first compound 0.8 µM): 0.61
- relative viability ([6]; first compound 2.53 µM): 0.671
- relative viability ([7]; first compound 0.08 µM): 0.631
- relative viability ([7]; first compound 0.253 µM): 0.53
- relative viability ([7]; first compound 0.8 µM): 0.462
- relative viability ([7]; first compound 2.53 µM): 0.438
- relative viability ([8]; first compound 0.08 µM): 0.274
- relative viability ([8]; first compound 0.253 µM): 0.226
- relative viability ([8]; first compound 0.8 µM): 0.271
- relative viability ([8]; first compound 2.53 µM): 0.364
- relative viability ([9]; first compound 0.253 µM): 0.565
- relative viability ([9]; first compound 0.8 µM): 0.39
- relative viability ([9]; first compound 2.53 µM): 0.464
- relative viability ([10]; first compound 0.08 µM): 1.16
- relative viability ([10]; first compound 0.253 µM): 0.881
- relative viability ([10]; first compound 0.8 µM): 0.749
- relative viability ([10]; first compound 2.53 µM): 0.862

Cell Line: NCI-H522
- relative viability ([1]; 0.08 µM): 1.27
- relative viability ([1]; 0.253 µM): 0.891
- relative viability ([1]; 0.8 µM): 0.882
- relative viability ([1]; 2.53 µM): 0.886
- relative viability ([11]; first compound 0.08 µM): 1.04
- relative viability ([11]; first compound 0.253 µM): 0.929
- relative viability ([11]; first compound 0.8 µM): 0.838
- relative viability ([11]; first compound 2.53 µM): 0.8
- relative viability ([2]; first compound 0.08 µM): 0.992
- relative viability ([2]; first compound 0.253 µM): 0.898
- relative viability ([2]; first compound 0.8 µM): 0.767
- relative viability ([2]; first compound 2.53 µM): 0.873
- relative viability ([3]; first compound 0.08 µM): 0.796
- relative viability ([3]; first compound 0.253 µM): 0.695
- relative viability ([3]; first compound 0.8 µM): 0.685
- relative viability ([3]; first compound 2.53 µM): 0.828
- relative viability ([4]; first compound 0.08 µM): 1.1
- relative viability ([4]; first compound 0.253 µM): 0.832
- relative viability ([4]; first compound 0.8 µM): 0.855
- relative viability ([4]; first compound 2.53 µM): 0.988
- relative viability ([12]; first compound 0.08 µM): 0.675
- relative viability ([12]; first compound 0.253 µM): 0.591
- relative viability ([12]; first compound 0.8 µM): 0.592
- relative viability ([12]; first compound 2.53 µM): 0.617
- relative viability ([5]; first compound 0.08 µM): 0.949
- relative viability ([5]; first compound 0.253 µM): 0.775
- relative viability ([5]; first compound 0.8 µM): 0.648
- relative viability ([5]; first compound 2.53 µM): 0.704
- relative viability ([6]; first compound 0.08 µM): 0.777
- relative viability ([6]; first compound 0.253 µM): 0.777
- relative viability ([6]; first compound 0.8 µM): 0.656
- relative viability ([6]; first compound 2.53 µM): 0.747
- relative viability ([7]; first compound 0.08 µM): 0.592
- relative viability ([7]; first compound 0.253 µM): 0.652
- relative viability ([7]; first compound 0.8 µM): 0.667
- relative viability ([7]; first compound 2.53 µM): 0.636
- relative viability ([8]; first compound 0.08 µM): 1.27
- relative viability ([8]; first compound 0.253 µM): 0.808
- relative viability ([8]; first compound 0.8 µM): 1.1
- relative viability ([8]; first compound 2.53 µM): 0.998
- relative viability ([9]; first compound 0.08 µM): 0.602
- relative viability ([9]; first compound 0.253 µM): 0.582
- relative viability ([9]; first compound 0.8 µM): 0.552
- relative viability ([9]; first compound 2.53 µM): 0.494
- relative viability ([10]; first compound 0.08 µM): 0.663
- relative viability ([10]; first compound 0.253 µM): 0.651
- relative viability ([10]; first compound 0.8 µM): 0.607
- relative viability ([10]; first compound 2.53 µM): 0.709
- relative viability ([13]; first compound 0.08 µM): 1.31
- relative viability ([13]; first compound 0.253 µM): 0.984
- relative viability ([13]; first compound 0.8 µM): 1.27
- relative viability ([13]; first compound 2.53 µM): 1.16
